Test results: the NIST ThermoML archive (doi:10.1016/j.fluid.2006.08.004)
Numbers after ± are expanded uncertainties.

Experiments:
[1] = refractive index (Na D-line) (dimensionless); settings: 298.15 K; 101.33 kPa; Liquid; Standard Abbe refractometry
[2] = Liquid; for mass density: 298.15 K, 101.33 kPa; for Normal boiling temperature: Ebulliometric method (Recirculating still)

| refractive index [1] | mass density [2] | Normal boiling temperature [2] | Compound |
| --- | --- | --- | --- |
| 1.36512 ± 0.0007 | 718.37 ± 1.2 kg/m3 | 68.38 ± 0.1 °C | CC(C)OC(C)C [diisopropyl ether] |
| 1.38887 ± 0.00068 | 687.72 ± 0.65 kg/m3 | 99.18 ± 0.01 °C | CC(C)CC(C)(C)C [2,2,4-trimethylpentane] |
| 1.35926 ± 0.00068 | 785.09 ± 0.25 kg/m3 | 78.29 ± 0.01 °C | CCO [ethanol] |
